Data reported in PubChem BioAssay AID1918944 (Molecular Pharmacology Branch, DTP, NCI, 2023).
pIC50: −log10 of the molar value. “And” between values parts separate entries of the source, which are not always exact repeats. Equal entries are not always repeated. One block for each molecule: values may come before it. The source made the active and inactive calls. How the source made its calls: active means viability on the fitted dose curve at most 10% of control; inactive means the rest.

System: 786-0 complex spheroid viability
Experiment: Anticancer human tumor 786-0 cell line growth inhibition;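 further: spheroids exposed to agents for seven days before readout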
Details: for viability, T/C: stronger effect = lower value; for outcome: first compound 0.00949 µM
Excerpt: Multicellular complex tumor spheroid response to LSD1 Inhibitor Iadademstat in combination with a variety of drugs and investigational agents in selected tumor cell lines
The current study was undertaken to assess response to LSD1 inhibitors in combination with standard-of-care drugs and investigational agents in solid tumor complex spheroid models as well as in the K-562 leukemia. Complex spheroids include a stromal component modeled by human endothelial cells (HUVEC) and fibroblasts modeled by human mesenchymal stem cells (MSCs). The concentration ranges selected for each drug and investigational agent were based upon clinically achievable concentrations if the clinical Cmax of the agent was known.
Compounds. The drugs and investigational agents used in this study are listed on Table 1. All of the agents used, including staurosporine (NSC755774) and gemcitabine (NSC613327), were obtained from the Developmental Therapeutics Program, NCI. FDA-approved anticancer drugs are available from the NCI at http://dtp.nci.nih.gov/branches/dscb/oncology_drugset_explanation.html. Drugs and investigational agents were >95% pure by proton nuclear magnetic resonance (NMR) and liquid chromatography/mass spectrometry (LC/MS). Stock solutions were prepared at 400x in DMSO, stored at -70 degrees C, and diluted in fresh medium prior to their use. The final concentration of DMSO in cell culture wells never exceeded 0.25% (v/v). The FDA-approved anticancer drug set is available from the Developmental Therapeutics Program at https://dtp.cancer.gov/organization/dscb/obtaining/available_plates.htm. All drugs and investigational agents were tested over a range starting from a high concentration at or near the clinical Cmax and decreasing in half-log increments. If the clinical Cmax for an agent had not been determined, the highest concentration tested was 10 microM.
Cell Lines. The patient-derived cancer cell (PDC) lines: 292921-168-R-J2-PDC, K24384-001-R-PDC, and 521955-158-R2-J5-PDC pancreatic carcinomas, 556581-035-R-J1 ovarian carcinoma, 324938-238-R-J1-PDC, 855422-203-R-J1-PDC and 883617-216-R-J1-PDC urothelial bladder carcinomas, 743489-274-T-PDC renal cell carcinoma, 138582-R-J1 Merkel cell tumor, K60290-347-R-J1 and K57222-313-R-J1-PDC glioblastomas, 653999-131-R-J2-PDC, LG0703-F948-PDC, and 349418-098-R-PDC non-small cell lung carcinomas, 885512-296-R-J2-PDC, 171881-019-R-J1-PDC breast carcinomas and 186277-243-T-J2-PDC and 233499-124-R-J2-PDC colon carcinomas were obtained from the NCI Patient-Derived Models Repository (PDMR, https://pdmr.cancer.gov). The established cell lines NCI/ADR-RES (RRID:CVCL_14520 and OVCAR-5 (RRID:CVCL_1628) ovarian carcinomas, 786-O (RRID:CVCL_1051) and A498 (RRID:CVCL_A498) renal cell carcinoma, NCI-H211 (ATCC, cat. CRL-5824; RRID:CVCL_1529), NCI-H196 (ATCC, cat. CRL-5823, RRID:CVCL_1509), SW 1271 (ATCC, cat. CRL-2177, RRID:CVCL_1716) and NCI-H1876 (ATCC, cat. CRL-5902, RRID:CVCL_1503) small cell lung carcinomas, MDA-MB-231 (RRID:CVCL_0062) and MDA-MB-468 (RRID:CVCL_0419)breast carcinomas (10-12). Pooled donor human umbilical vein endothelial cells (HUVEC, Lonza, cat. CC-2519) and human mesenchymal stem cells (hMSC, Lonza, cat. PT-2501) were purchased from Lonza (Walkersville, MD).
Cell Culture. All cells were maintained in an incubator at 37 degrees C and 5% CO2 with 95% humidity. The PDC lines were cultured according to standard operating procedures established by the NCI PDMR (https://pdmr.cancer.gov). Briefly all PDCs were thawed and cultured in Matrigel-coated flasks prepared with a working solution of 1X Ham's F-12 nutrient mix, without supplementation (Invitrogen, Waltham, MA, cat. 11765054), 100 U/mL penicillin-streptomycin (Invitrogen, cat. 15140122), and 2.5% Matrigel (Corning Inc., Corning, NY, cat. 354248) for the first three passages. […]

[1] = curve of first compound, second compound 0.1 µM
[2] = curve of first compound, second compound 0.316 µM
[3] = curve of first compound, second compound 1 µM
[4] = curve of first compound, second compound 3.16 µM
[5] = curve of first compound, second compound 10 µM
[6] = second compound 0.1 µM, first compound 0.00316 µM
[7] = second compound 0.1 µM, first compound 0.01 µM
[8] = second compound 0.1 µM, first compound 0.0316 µM
[9] = second compound 0.1 µM, first compound 0.1 µM
[10] = second compound 0.316 µM, first compound 0.00316 µM
[11] = second compound 0.316 µM, first compound 0.01 µM
[12] = second compound 0.316 µM, first compound 0.0316 µM
[13] = second compound 0.316 µM, first compound 0.1 µM
[14] = second compound 1 µM, first compound 0.00316 µM
[15] = second compound 1 µM, first compound 0.01 µM
[16] = second compound 1 µM, first compound 0.0316 µM
[17] = second compound 1 µM, first compound 0.1 µM
[18] = second compound 3.16 µM, first compound 0.00316 µM
[19] = second compound 3.16 µM, first compound 0.01 µM
[20] = second compound 3.16 µM, first compound 0.0316 µM
[21] = second compound 3.16 µM, first compound 0.1 µM
[22] = second compound 10 µM, first compound 0.00316 µM
[23] = second compound 10 µM, first compound 0.01 µM
[24] = second compound 10 µM, first compound 0.0316 µM
[25] = second compound 10 µM, first compound 0.1 µM

SMILES: O=C(C=Cn1cnc(-c2cc(C(F)(F)F)cc(C(F)(F)F)c2)n1)NNc1cnccn1 + NC1CCC(NC2CC2c2ccccc2)CC1
pIC50 [1]: 7.60
pIC50 [2]: 7.69
pIC50 [3]: 7.64
pIC50 [4]: 7.79
pIC50 [5]: 7.92
viability, T/C [6]: 94.3%
viability, T/C [7]: 68.9%
viability, T/C [8]: 44.6%
viability, T/C [9]: 31.8%
viability, T/C (second compound 0.1 µM, first compound 0.316 µM): 21%
viability, T/C (second compound 0.1 µM, first compound 1 µM): 17.9%
viability, T/C [10]: 97.4%
viability, T/C [11]: 61.9%
viability, T/C [12]: 42.1%
viability, T/C [13]: 30.7%
viability, T/C (second compound 0.316 µM, first compound 0.316 µM): 21.2%
viability, T/C (second compound 0.316 µM, first compound 1 µM): 18.6%
viability, T/C [14]: 90.8%
viability, T/C [15]: 63.4%
viability, T/C [16]: 42.6%
viability, T/C [17]: 34.4%
viability, T/C (second compound 1 µM, first compound 0.316 µM): 21.6%
viability, T/C (second compound 1 µM, first compound 1 µM): 15.7%
viability, T/C [18]: 81%
viability, T/C [19]: 51.6%
viability, T/C [20]: 43.6%
viability, T/C [21]: 31.7%
viability, T/C (second compound 3.16 µM, first compound 0.316 µM): 20.8%
viability, T/C (second compound 3.16 µM, first compound 1 µM): 14.9%
viability, T/C [22]: 74%
viability, T/C [23]: 48.3%
viability, T/C [24]: 37.5%
viability, T/C [25]: 35.1%
viability, T/C (second compound 10 µM, first compound 0.316 µM): 19.9%
viability, T/C (second compound 10 µM, first compound 1 µM): 16.9%

SMILES: Nc1ccn(C2OC(CO)C(O)C2(F)F)c(=O)n1 (configuration not stated) + NC1CC1c1ccc(-c2cccc(O)c2)cc1
pIC50 [1]: > 9.02
pIC50 [2]: > 9.02
pIC50 [3]: > 9.02
pIC50 [4]: > 9.02
pIC50 [5]: > 9.02
viability, T/C (second compound 0.1 µM, first compound 0.000949 µM): 10.3%
viability, T/C (second compound 0.1 µM, first compound 0.003 µM): 2.49%
outcome (second compound 0.1 µM): active
viability, T/C (second compound 0.1 µM, first compound 0.03 µM): 2.95%
viability, T/C (second compound 0.1 µM, first compound 0.0949 µM): 3.87%
viability, T/C (second compound 0.1 µM, first compound 0.3 µM): 4.12%
viability, T/C (second compound 0.316 µM, first compound 0.000949 µM): 9.54%
viability, T/C (second compound 0.316 µM, first compound 0.003 µM): 2.66%
outcome (second compound 0.316 µM): active
viability, T/C (second compound 0.316 µM, first compound 0.03 µM): 2.74%
viability, T/C (second compound 0.316 µM, first compound 0.0949 µM): 4.19%
viability, T/C (second compound 0.316 µM, first compound 0.3 µM): 3.51%
viability, T/C (second compound 1 µM, first compound 0.000949 µM): 7.42%
viability, T/C (second compound 1 µM, first compound 0.003 µM): 2.53%
outcome (second compound 1 µM): active
viability, T/C (second compound 1 µM, first compound 0.03 µM): 2.64%
viability, T/C (second compound 1 µM, first compound 0.0949 µM): 3.23%
viability, T/C (second compound 1 µM, first compound 0.3 µM): 4%
viability, T/C (second compound 3.16 µM, first compound 0.000949 µM): 9.36%
viability, T/C (second compound 3.16 µM, first compound 0.003 µM): 2.32%
outcome (second compound 3.16 µM): active
viability, T/C (second compound 3.16 µM, first compound 0.03 µM): 2.75%
viability, T/C (second compound 3.16 µM, first compound 0.0949 µM): 3.87%
viability, T/C (second compound 3.16 µM, first compound 0.3 µM): 6.57%
viability, T/C (second compound 10 µM, first compound 0.000949 µM): 7.48%
viability, T/C (second compound 10 µM, first compound 0.003 µM): 3.61%
outcome (second compound 10 µM): active
viability, T/C (second compound 10 µM, first compound 0.03 µM): 2.69%
viability, T/C (second compound 10 µM, first compound 0.0949 µM): 3.6%
viability, T/C (second compound 10 µM, first compound 0.3 µM): 4.45%

pIC50 (curve of compound): 7.94 and 7.75
SMILES: CC(C)CC(NC(=O)CNC(=O)c1cc(Cl)ccc1Cl)B1OC(=O)CC(CC(=O)O)(C(=O)O)O1 (configuration not stated)
viability, T/C (compound 0.000316 µM): 108% and 107%
viability, T/C (compound 0.001 µM): 106% and 104%
viability, T/C (compound 0.00316 µM): 102% and 106%
viability, T/C (compound 0.01 µM): 49.1% and 64.2%
viability, T/C (compound 0.0316 µM): 30.4% and 36.4%
viability, T/C (compound 0.1 µM): 7.53% and 16.1%

SMILES: Cn1ncnc1C1c2n[nH]c(=O)c3cc(F)cc(c23)NC1c1ccc(F)cc1 (configuration not stated) + NC1CC1c1ccc(-c2cccc(O)c2)cc1
pIC50 [1]: < 7.00
pIC50 [2]: < 7.00
pIC50 [3]: < 7.00
pIC50 [4]: < 7.00
pIC50 [5]: < 7.00
viability, T/C (second compound 0.1 µM, first compound 0.000316 µM): 95.4%
viability, T/C (second compound 0.1 µM, first compound 0.001 µM): 94.4%
viability, T/C [6]: 95%
viability, T/C [7]: 91.9%
viability, T/C [8]: 92.4%
viability, T/C [9]: 89.3%
viability, T/C (second compound 0.316 µM, first compound 0.000316 µM): 102%
viability, T/C (second compound 0.316 µM, first compound 0.001 µM): 102%
viability, T/C [10]: 101%
viability, T/C [11]: 91%
viability, T/C [12]: 94.3%
viability, T/C [13]: 95.9%
viability, T/C (second compound 1 µM, first compound 0.000316 µM): 93.3%
viability, T/C (second compound 1 µM, first compound 0.001 µM): 94.5%
viability, T/C [14]: 90.6%
viability, T/C [15]: 86.9%
viability, T/C [16]: 81.5%
viability, T/C [17]: 85%
viability, T/C (second compound 3.16 µM, first compound 0.000316 µM): 88.4%
viability, T/C (second compound 3.16 µM, first compound 0.001 µM): 92.1%
viability, T/C [18]: 90.9%
viability, T/C [19]: 87.8%
viability, T/C [20]: 85.2%
viability, T/C [21]: 76.4%
viability, T/C (second compound 10 µM, first compound 0.000316 µM): 80.7%
viability, T/C (second compound 10 µM, first compound 0.001 µM): 87%
viability, T/C [22]: 84.3%
viability, T/C [23]: 83.2%
viability, T/C [24]: 79.8%
viability, T/C [25]: 74.5%
